Data published in US20210236539A1, “METHOD OF PROPHYLAXIS OF ZIKA VIRUS INFECTION” (priority 2016, published 2021).

Assays:
West Nile Fever virus = test: Activity against West Nile Fever virus (DSP0114), 4 concentration assay; assay type: cell-based
Experimental: (§1) The activity of dendrimeric compounds against Dengue virus (D) and West Nile Fever virus (WNF) was tested.
a) The compound [BHAlys][Lys]16[CONH-Ph-3,5-(SO3Na)2]32 (SPL compound 7674) was tested for activity against West Nile Fever virus (DSP0114) (the compound has a sulfonic acid- or sulfonate-containing moiety which is
A 4 concentration assay was used. The positive control was interferon-alpha.

Dengue Type 2 virus = test: Activity against Dengue Type 2 virus (DSP0196); assay type: cell-based
Experimental: as §1
b) The compound [BHAlys] [Lys]16 [CSNH-4-Ph(SO3Na)]32 (SPL compound 2792) was tested for activity against Dengue Type 2 virus (DSP0196). (the compound has a sulfonic acid- or sulfonate-containing moiety which is […]

Substance | activity against West Nile Fever virus (in words) (West Nile Fever virus) | EC50 NR (West Nile Fever virus; West Nile Fever virus, NR readout) [µg/mL] | EC50 VIS (West Nile Fever virus; West Nile Fever virus, VIS readout) [µg/mL] | activity against Dengue Type 2 virus (in words) (Dengue Type 2 virus) | EC50 NR (Dengue Type 2 virus; Dengue Type 2 virus, NR readout) [µg/mL] | EC50 VIS (Dengue Type 2 virus; Dengue Type 2 virus, VIS readout) [µg/mL]
[BHAlys][Lys]16[CONH-Ph-3,5-(SO3Na)2]32 [SPL compound 7674] | not active | 34 | 22 |  |  | 
[BHAlys] [Lys]16 [CSNH-4-Ph(SO3Na)]32 [SPL compound 2792] |  |  |  | not active | 50.3 | > 100
